Values quoted from earlier work, collected in US8394287B2, “Non-aqueous heat transfer fluid and use thereof” (priority 2001, dated 2013).

Tested on: human
Conditions: Federal Register Vol. 63, No. 27, Feb. 10, 1998

## OCCO [EG, ethylene glycol]
  lethal dose for a human: approximately 1,570 mg/kg body mass
